Experiment [1] can be described thus: HEK-293T viability loss after treatment – luminescence, T-cell screen hits, cytotoxicity control for TCR NF-kB inhibitor project, dose response (AID 489026).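 Note: cells exposed to compound about 14 hours before the viability readout.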 The class given is functional, cell-based.
The target of a further experiment is Galanin receptor type 3 (Homo sapiens, UniProt O60755). As to the kind of experiment: Fluorescence-based cell-based primary high throughput dose response assay to identify antagonists of the Galanin Receptor 3 (GalR3). The class given is functional.
A further experiment in a line: cells. Format: functional, cell-based. Conditions: HEK-CNG.
The test system of a further experiment is H9c2. Nature of the experiment: cells. Format: functional, cell-based. Conditions: Rattus norvegicus, H9c2, Myocardium.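 Note: confirmatory concentration-response retest of ultra-high-throughput screening hits for modulation of myocardial damage; cell death induced by hydrogen peroxide oxidative stress; compound pretreatment for 60 min then peroxide exposure for 2 h; potency is for protecting the cells against peroxide damage rather than for killing them.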
Experiment [2] has as its target DNA repair protein RAD52 homolog (Homo sapiens, UniProt P43351). Format: functional, biochemical.
A short description of experiment [3]: Luminescence-based dose response cell-based high throughput screening assay for cytotoxic compounds using the IEC-6 intestinal epithelial cell line. [Related pubchem assays: 1858 (Summary AID.), 1825 (Counterscreen.), 1907 (Confirmation screen.)]. Format: functional.
A short description of experiment [4]: Luminescence Cell-Based Dose Retest to Confirm Inhibitors of Cancer Stem Cells. [Related pubchem assays (depositor defined):AID2717, AID2721]. Format: functional. Conditions: Homo sapiens.
For a further experiment, the system named is INS1. As to the kind of experiment: INS-1E survival protection against cytokine death – cell-based, luminescence, retest, dose response (AID 449756).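 Note: cell death triggered by IL-1 beta plus TNF-alpha plus IFN-gamma mixture; protective hits raise ATP signal compared with cytokine alone wells.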 Format: functional. As to conditions: Rattus norvegicus.
A short description of experiment [5]: activation of miR-122 Renilla sensor silencing – cell-based, Huh7 psiCHECK-miR122, Renilla luciferase, cherry-picked, dose response (AID 651956).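 Note: huh7 hepatoma cells stably carrying a psiCHECK-2 miR-122 sensor plasmid; renilla luciferase signal reporting endogenous miR-122 activity after 48 h compound exposure.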 Format: functional.
The nature of experiment [6]: general mammalian cell viability loss – inhibitor set, cherry-pick, set 2, cytotoxicity control for miR-122 modulator project, dose response (AID 720697). Format: functional, cell-based.
Experiment [7] addresses Broad substrate specificity ATP-binding cassette transporter ABCG2 (Homo sapiens, UniProt Q9UNQ0). As to the kind of experiment: blockers of JC-1 export by ABCG2 – Ig-MXP3 cells, flow cytometry, dose response (AID 1690). The class given is functional.
Experiment [8] deals with Matrix metalloproteinase-14 (Homo sapiens, UniProt P50281). As to the kind of experiment: Dose Response confirmation of uHTS hits for a small molecule inhibitors of MT1-MMP activation in a fluorescence assay set 1. Format: functional.
Experiment [9] in a line: Counterscreen for […] of the human trace amine associated receptor 1 (TAAR1): Fluorescence-based cell-based high throughput dose response assay to identify nonselective Ga16 agonists. The class given is functional.
Experiment [10] has as its target T1, Trace amine-associated receptor 1 (Homo sapiens, UniProt Q96RJ0).
T1 sequence (Q96RJ0 whole entry): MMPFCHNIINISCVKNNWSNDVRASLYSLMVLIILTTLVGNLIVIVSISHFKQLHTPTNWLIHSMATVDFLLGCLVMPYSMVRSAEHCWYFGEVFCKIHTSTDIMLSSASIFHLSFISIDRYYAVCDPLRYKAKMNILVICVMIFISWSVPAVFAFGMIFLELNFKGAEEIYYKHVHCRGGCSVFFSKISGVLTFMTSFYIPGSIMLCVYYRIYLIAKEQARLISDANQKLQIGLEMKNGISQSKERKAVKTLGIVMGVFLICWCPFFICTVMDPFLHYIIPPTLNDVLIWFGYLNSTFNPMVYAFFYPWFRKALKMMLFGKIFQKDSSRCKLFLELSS
Nature of the experiment: Fluorescence-based cell-based high throughput dose response assay to identify antagonists of the human trace amine associated receptor 1 (TAAR1). Format: functional.

The nature of experiment [11]: Counterscreen for antagonists of the human trace amine associated receptor 1 (hTAAR1): Fluorescence-based cell-based high throughput dose response assay to identify nonselective Ga16 antagonists. The class given is functional.
In experiment [12] the target is T1, Trace amine-associated receptor 1. As to the kind of experiment: Counterscreen for antagonists of the human trace amine associated receptor 1 (hTAAR1): Fluorescence-based cell-based high throughput dose response assay to identify TAAR1 Agonists. The class given is functional.
The target in experiment [13] is T2, Carboxy-terminal domain RNA polymerase II polypeptide A small phosphatase 1 (Homo sapiens, UniProt Q9GZU7).
T2 sequence (Q9GZU7 whole entry): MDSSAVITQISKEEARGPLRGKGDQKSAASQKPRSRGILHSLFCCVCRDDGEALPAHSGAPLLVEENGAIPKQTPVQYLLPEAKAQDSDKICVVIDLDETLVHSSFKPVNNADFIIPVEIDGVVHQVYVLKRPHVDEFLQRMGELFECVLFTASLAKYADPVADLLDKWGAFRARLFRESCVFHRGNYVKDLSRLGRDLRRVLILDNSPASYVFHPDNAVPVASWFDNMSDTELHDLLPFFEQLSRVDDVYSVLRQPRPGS
As to the kind of experiment: CTDSP1 inhibitors, concentration-response, biochemical, absorbance readout, ultra-high-throughput screen actives (AID 540297). The class given is functional.

Experiment [14] has as its target Tyrosine-protein phosphatase non-receptor type 11 (Homo sapiens, UniProt Q06124). As to the kind of experiment: PTPN11 enzyme inhibitors – biochemical, selectivity assay for STEP inhibitor project, dose response (AID 602367). Conditions: read-out: IC50_Mean. Format: functional.
The target in experiment [15] is Tyrosine-protein phosphatase non-receptor type 5 (Homo sapiens, UniProt P54829). Nature of the experiment: PTPN5 enzyme inhibition – biochemical, fluorescence intensity, uHTS hits, confirmation (AID 602372). The class given is functional. As to conditions: read-out: IC50_Mean.
Experiment [16] concerns the target Dual specificity protein phosphatase 3 (Homo sapiens, UniProt P51452). Nature of the experiment: VHR phosphatase inhibition, dose response, selectivity assay for STEP inhibitor project, biochemical (AID 602374). The class given is functional. Conditions: read-out: IC50_Mean.
In experiment [17] the target is T3, Tyrosine-protein phosphatase non-receptor type 22 (Homo sapiens, UniProt Q9Y2R2).
T3 sequence (Q9Y2R2 whole entry): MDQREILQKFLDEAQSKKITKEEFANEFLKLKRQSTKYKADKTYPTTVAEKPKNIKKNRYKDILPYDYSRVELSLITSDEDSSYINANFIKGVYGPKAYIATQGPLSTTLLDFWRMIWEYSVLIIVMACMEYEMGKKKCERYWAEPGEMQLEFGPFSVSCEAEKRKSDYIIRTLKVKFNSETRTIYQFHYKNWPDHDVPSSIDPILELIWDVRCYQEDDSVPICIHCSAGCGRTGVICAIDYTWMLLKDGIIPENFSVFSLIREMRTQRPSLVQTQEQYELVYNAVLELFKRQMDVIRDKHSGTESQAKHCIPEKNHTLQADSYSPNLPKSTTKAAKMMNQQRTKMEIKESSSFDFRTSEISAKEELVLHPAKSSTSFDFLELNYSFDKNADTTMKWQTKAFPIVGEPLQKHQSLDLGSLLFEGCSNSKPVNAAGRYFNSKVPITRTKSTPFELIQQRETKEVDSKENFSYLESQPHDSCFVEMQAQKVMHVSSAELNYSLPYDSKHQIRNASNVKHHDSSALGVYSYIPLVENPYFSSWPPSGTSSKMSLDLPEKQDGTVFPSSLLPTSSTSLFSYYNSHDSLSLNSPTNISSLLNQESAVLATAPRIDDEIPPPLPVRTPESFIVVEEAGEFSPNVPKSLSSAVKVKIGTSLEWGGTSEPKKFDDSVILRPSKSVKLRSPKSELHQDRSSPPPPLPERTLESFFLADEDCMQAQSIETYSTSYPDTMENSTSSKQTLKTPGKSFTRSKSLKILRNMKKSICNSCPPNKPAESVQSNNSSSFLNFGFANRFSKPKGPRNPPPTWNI
As to the kind of experiment: lymphoid phosphatase LYP inhibitors – biochemical, selectivity assay for STEP inhibitor project, dose response (AID 624241). Format: functional.

The structures appear in SMILES notation. Activity calls are given as the source filed them.

The results in this text go back to ChEMBL document CHEMBL1201862, “PubChem BioAssay data set” (2004).

Chain of Galanin receptor type 3 (O60755 whole entry): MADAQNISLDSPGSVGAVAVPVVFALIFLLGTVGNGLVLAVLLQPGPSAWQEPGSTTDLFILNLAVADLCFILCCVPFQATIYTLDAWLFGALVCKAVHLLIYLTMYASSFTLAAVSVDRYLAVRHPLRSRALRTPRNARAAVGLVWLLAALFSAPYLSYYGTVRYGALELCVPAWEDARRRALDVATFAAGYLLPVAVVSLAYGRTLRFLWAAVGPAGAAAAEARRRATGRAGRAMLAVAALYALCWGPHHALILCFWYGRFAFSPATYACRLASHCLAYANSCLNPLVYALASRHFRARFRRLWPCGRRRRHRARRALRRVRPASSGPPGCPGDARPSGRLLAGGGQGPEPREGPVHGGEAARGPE
Chain of Dual specificity protein phosphatase 3 (P51452 whole entry): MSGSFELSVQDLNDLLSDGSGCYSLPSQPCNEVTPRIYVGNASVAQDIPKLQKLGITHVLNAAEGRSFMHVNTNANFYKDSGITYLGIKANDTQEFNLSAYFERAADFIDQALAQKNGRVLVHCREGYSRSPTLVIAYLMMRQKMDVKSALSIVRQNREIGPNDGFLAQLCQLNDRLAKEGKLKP
Chain of Tyrosine-protein phosphatase non-receptor type 5 (P54829 whole entry): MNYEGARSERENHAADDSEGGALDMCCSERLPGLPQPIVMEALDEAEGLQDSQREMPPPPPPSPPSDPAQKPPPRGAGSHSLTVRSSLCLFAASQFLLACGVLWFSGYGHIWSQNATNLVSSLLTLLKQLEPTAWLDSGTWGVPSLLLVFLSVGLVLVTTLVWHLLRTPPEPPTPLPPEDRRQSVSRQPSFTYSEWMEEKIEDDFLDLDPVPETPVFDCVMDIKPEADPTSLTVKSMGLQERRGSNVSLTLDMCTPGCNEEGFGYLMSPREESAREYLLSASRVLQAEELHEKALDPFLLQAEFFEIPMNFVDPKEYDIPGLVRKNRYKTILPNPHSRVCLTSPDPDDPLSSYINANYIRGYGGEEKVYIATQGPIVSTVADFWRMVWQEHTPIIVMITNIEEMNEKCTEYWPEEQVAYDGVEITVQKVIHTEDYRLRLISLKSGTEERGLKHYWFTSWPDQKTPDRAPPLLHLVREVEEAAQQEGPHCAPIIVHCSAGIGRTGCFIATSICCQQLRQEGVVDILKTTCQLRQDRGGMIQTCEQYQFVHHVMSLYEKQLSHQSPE
Chain of DNA repair protein RAD52 homolog (P43351 whole entry): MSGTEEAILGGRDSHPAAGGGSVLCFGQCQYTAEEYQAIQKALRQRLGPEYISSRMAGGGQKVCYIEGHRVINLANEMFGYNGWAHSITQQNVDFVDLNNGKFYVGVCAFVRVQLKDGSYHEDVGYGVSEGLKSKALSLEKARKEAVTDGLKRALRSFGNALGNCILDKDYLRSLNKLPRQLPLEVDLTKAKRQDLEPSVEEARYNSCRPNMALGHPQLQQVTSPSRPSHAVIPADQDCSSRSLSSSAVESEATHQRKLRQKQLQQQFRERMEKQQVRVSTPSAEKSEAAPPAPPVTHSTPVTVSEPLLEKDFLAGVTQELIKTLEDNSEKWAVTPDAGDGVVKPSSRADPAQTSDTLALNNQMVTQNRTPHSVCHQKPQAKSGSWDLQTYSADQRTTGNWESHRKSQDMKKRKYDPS
Chain of Tyrosine-protein phosphatase non-receptor type 11 (Q06124 whole entry): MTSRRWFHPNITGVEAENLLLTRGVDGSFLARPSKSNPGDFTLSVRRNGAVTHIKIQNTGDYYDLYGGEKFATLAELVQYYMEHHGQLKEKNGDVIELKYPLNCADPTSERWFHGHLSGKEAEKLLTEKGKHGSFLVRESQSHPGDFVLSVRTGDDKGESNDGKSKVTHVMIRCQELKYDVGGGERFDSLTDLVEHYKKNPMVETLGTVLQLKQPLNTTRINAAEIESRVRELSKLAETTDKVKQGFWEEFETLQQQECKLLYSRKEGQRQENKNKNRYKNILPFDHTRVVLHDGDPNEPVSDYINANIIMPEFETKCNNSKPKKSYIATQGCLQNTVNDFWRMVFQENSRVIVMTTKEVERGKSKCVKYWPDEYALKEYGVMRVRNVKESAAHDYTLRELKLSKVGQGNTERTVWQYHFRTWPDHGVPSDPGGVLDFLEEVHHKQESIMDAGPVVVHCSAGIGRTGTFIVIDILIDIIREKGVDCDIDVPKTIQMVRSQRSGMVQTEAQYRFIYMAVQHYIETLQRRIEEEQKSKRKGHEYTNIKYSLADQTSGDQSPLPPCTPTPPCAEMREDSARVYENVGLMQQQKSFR
Chain of Broad substrate specificity ATP-binding cassette transporter ABCG2 (Q9UNQ0 whole entry): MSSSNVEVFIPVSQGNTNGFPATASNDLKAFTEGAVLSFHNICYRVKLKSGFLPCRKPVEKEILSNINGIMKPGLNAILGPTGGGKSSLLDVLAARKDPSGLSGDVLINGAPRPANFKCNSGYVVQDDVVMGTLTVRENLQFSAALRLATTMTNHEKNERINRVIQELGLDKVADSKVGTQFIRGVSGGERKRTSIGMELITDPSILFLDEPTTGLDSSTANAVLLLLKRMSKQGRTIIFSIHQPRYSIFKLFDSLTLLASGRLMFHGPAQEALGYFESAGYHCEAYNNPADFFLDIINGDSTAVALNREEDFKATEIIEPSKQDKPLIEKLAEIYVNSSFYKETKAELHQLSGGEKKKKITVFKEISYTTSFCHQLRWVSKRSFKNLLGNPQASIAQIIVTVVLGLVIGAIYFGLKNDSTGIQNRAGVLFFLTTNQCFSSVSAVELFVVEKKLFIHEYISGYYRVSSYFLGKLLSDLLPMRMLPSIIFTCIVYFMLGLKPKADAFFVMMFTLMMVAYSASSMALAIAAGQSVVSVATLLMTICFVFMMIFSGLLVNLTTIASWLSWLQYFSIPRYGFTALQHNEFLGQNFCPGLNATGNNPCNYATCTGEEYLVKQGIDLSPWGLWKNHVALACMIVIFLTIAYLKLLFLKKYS

As to `CCn1cc(C(=O)NC2CCCc3c2cnn3-c2cccc(C)c2C)cn1` (stereo unspecified), the IC50 in experiment [1] was > 80 µM (inactive); on Galanin receptor type 3 it was 0.874 µM (active). In addition, the EC50 in “cells” was > 29.9 µM (inactive).
As to `COc1ccc2c(c1OC)c(=O)n1c3ccc(OC(C)C(=O)NCCN4CCOCC4)cc3c3ccnc2c31` (stereo unspecified), the IC50 in the experiment on H9c2 was 21.3 µM (active). For the same compound, the concentration at half-maximal activity (AC50) in experiment [2] was 4.31 µM (active).
As to `Cc1ccc(-c2nc(C(Cl)Cl)c3ccccc3n2)cc1`, in experiment [3], the IC50 was 0.373 µM (active). For the same compound, the AC50 in experiment [4] is 1.1 µM (active); in the experiment with INS1, 4.53 µM (active); in experiment [5], 20 µM (active); in experiment [6], 10.1 µM (active).
Turning to `CCOc1ccccc1NC(=O)C(OC(=O)c1ccc(N(C)C)cc1)c1ccccc1` (stereo unspecified), the EC50 in experiment [7] was 2.75 µM (active).
With `CCOc1ccc2nc(NN=C3C(=O)NC(=S)NC3=O)sc2c1`, the IC50 in experiment [8] was 13.9 µM (active).
For the compound `Cc1ccc(S(=O)(=O)N2[C@@H](c3ccc(Br)cc3)C(C(=O)O)=CC[C@H]2c2ccc(Cl)cc2)cc1`, the EC50 is > 29.9 µM (inactive) in experiment [9] and 13.1 µM (inactive) in [12]. For the same compound, the IC50 is 1.62 µM (active) in experiment [10] and 17.5 µM (inactive) in [11].
Regarding `O=C(O)Cc1cccc(O)c(=O)c1C(=O)O`, the IC50 was 3.9 µM (active) in experiment [13]; 0.376 µM (active) in experiment [14]; 11.6 µM (active) in [15]; 0.544 µM (active) in experiment [16]; 8.34 µM (active) in experiment [17].
